From ChEMBL document CHEMBL3244078, “Synthesis and antihypertensive activity of novel 3-hydrazino-5-phenyl-1,2,4-triazines” (J Med Chem, 1979)
The source made the active and inactive calls. No cut-off for these calls is given here.

Tests used:
[1] = test system: Rattus norvegicus; experiment: Antihypertensive activity in spontaneously hypertensive rat assessed as drop in mean systolic blood pressure at 100 mg/kg, po after 4 hrs by tail cuff method relative to vehicle-treated control; format: functional
[2] = test system: Rattus norvegicus; experiment: Antihypertensive activity in spontaneously hypertensive rat assessed as drop in mean systolic blood pressure at 100 mg/kg, po after 24 hrs by tail cuff method relative to vehicle-treated control; format: functional
[3] = test system: Rattus norvegicus; experiment: Antihypertensive activity in spontaneously hypertensive rat assessed as drop in mean systolic blood pressure at 100 mg/kg, po followed by second dosing at 24 hrs measured after 28 hrs by tail cuff method relative to vehicle-treated control; format: functional
[4] = test system: Rattus norvegicus; experiment: Antihypertensive activity in spontaneously hypertensive rat assessed as drop in mean systolic blood pressure at 100 mg/kg, po followed by second dosing at 24 hrs measured after 48 hrs by tail cuff method relative to vehicle-treated control; format: functional
[5] = Toxicity in ip dosed CF-1 mouse after 48 hrs; settings: in vivo

| SMILES | Activity ([1]; Artery) | Activity ([2]; Artery) | Activity ([3]; Artery) | Activity ([4]; Artery) | LD50 at 48 h [5] | Activity [1] | Activity [2] | Activity [3] | Activity [4] |
| --- | --- | --- | --- | --- | --- | --- | --- | --- | --- |
| CC(=O)NNc1nncc(-c2ccc(Cl)c(Cl)c2)n1 | inactive | inactive | inactive | inactive | 237 mg/kg | – | – | – | – |
| O=C(CCCCl)NNc1nncc(-c2ccc(Cl)cc2)n1 | – | – | – | – | 237 mg/kg | 0 mmHg | 25 mmHg | 48 mmHg | 73 mmHg |
| CCC(=O)NNc1nncc(-c2ccc(Cl)cc2)n1 | – | – | – | – | 237 mg/kg | 47 mmHg | 79 mmHg | 107 mmHg | 111 mmHg |
| NNc1nncc(-c2cccc(C(F)(F)F)c2)n1 | – | – | – | – | 316 mg/kg | 26 mmHg | 0 mmHg | 48 mmHg | 40 mmHg |
| Cc1ccc(-c2cnnc(NNC(=O)C(F)(F)F)n2)cc1 | inactive | inactive | inactive | inactive | > 300 mg/kg | – | – | – | – |
| Cc1ccc(-c2cnnc(NNC(=O)C34CC5CC(CC(C5)C3)C4)n2)cc1.Cl | – | – | – | – | 216 mg/kg | 32 mmHg | 0 mmHg | 24 mmHg | 30 mmHg |
| Br.CC(N)C(=O)NNc1nncc(-c2cccc(Cl)c2)n1.O (stereo unspecified) | inactive | inactive | inactive | inactive | 178 mg/kg | – | – | – | – |
| NNc1nncc(-c2ccc(Cl)cc2)n1 | – | – | – | – | 237 mg/kg | 52 mmHg | 61 mmHg | 90 mmHg | 87 mmHg |
| CCCCCC(=O)NNc1nncc(-c2ccccc2)n1.Cl | – | – | – | – | 178 mg/kg | 53 mmHg | 53 mmHg | 81 mmHg | 68 mmHg |
| COc1ccc(-c2cnnc(NNC(C)=O)n2)cc1 | inactive | inactive | inactive | inactive | 237 mg/kg | – | – | – | – |
| O=C(NNc1nncc(-c2ccccc2)n1)C1CCCCC1 | – | – | – | – | 237 mg/kg | 24 mmHg | 51 mmHg | 76 mmHg | 79 mmHg |
| Br.NC(Cc1ccccc1)C(=O)NNc1nncc(-c2ccccc2)n1.O (stereo unspecified) | – | – | – | – | 178 mg/kg | 26 mmHg | 38 mmHg | 75 mmHg | 82 mmHg |
| O=C(NNc1nncc(-c2ccc(Cl)cc2)n1)C(F)(F)F | – | – | – | – | 237 mg/kg | 30 mmHg | 46 mmHg | 92 mmHg | 74 mmHg |
| NNc1nncc(-c2ccc(Cl)c(Cl)c2)n1 | inactive | inactive | inactive | inactive | > 300 mg/kg | – | – | – | – |
| Cc1ccc(-c2cnnc(NNC(=O)Cc3ccccc3)n2)cc1 | inactive | inactive | inactive | inactive | 237 mg/kg | – | – | – | – |
| Br.CC(C)C(N)C(=O)NNc1nncc(-c2ccc(Cl)cc2)n1.O (stereo unspecified) | – | – | – | – | 178 mg/kg | – | – | – | – |
| CC(=O)NNc1nncc(-c2ccc(C)cc2)n1.O | inactive | inactive | inactive | inactive | > 300 mg/kg | – | – | – | – |
| CC(=O)NNc1nncc(-c2ccccc2)n1 | – | – | – | – | 178 mg/kg | 40 mmHg | 94 mmHg | 106 mmHg | 104 mmHg |

| SMILES | Activity ([1]; Artery) | Activity ([2]; Artery) | Activity ([3]; Artery) | Activity ([4]; Artery) | LD50 at 48 h [5] | Activity [1] | Activity [2] | Activity [3] | Activity [4] |
| --- | --- | --- | --- | --- | --- | --- | --- | --- | --- |
| O=C(CCl)NNc1nncc(-c2ccccc2)n1 | – | – | – | – | 100 mg/kg | 63 mmHg | 74 mmHg | 101 mmHg | 55 mmHg |
| CNNc1nncc(-c2cccc(Cl)c2)n1 | – | – | – | – | 237 mg/kg | 28 mmHg | 35 mmHg | 63 mmHg | 51 mmHg |
| COc1ccc(-c2cnnc(NN)n2)cc1 | – | – | – | – | 56 mg/kg | 48 mmHg | 26 mmHg | 38 mmHg | 22 mmHg |
| CNNc1nncc(-c2ccc(C)cc2)n1 | inactive | inactive | inactive | inactive | 316 mg/kg | – | – | – | – |
| Br.CC(N)C(=O)NNc1nncc(-c2ccc(Cl)cc2)n1.O (stereo unspecified) | – | – | – | – | 237 mg/kg | 44 mmHg | 58 mmHg | 91 mmHg | 103 mmHg |
| CC(C)C(=O)NNc1nncc(-c2ccccc2)n1.Cl | – | – | – | – | 178 mg/kg | 44 mmHg | 46 mmHg | 98 mmHg | 83 mmHg |
| O=C(NNc1nncc(-c2ccccc2)n1)c1ccccc1 | inactive | inactive | inactive | inactive | > 300 mg/kg | – | – | – | – |
| Cl.O=C(Cc1ccccc1)NNc1nncc(-c2ccccc2)n1 | inactive | inactive | inactive | inactive | 237 mg/kg | – | – | – | – |
| O=C(NNc1nncc(-c2cccc(Cl)c2)n1)C(F)(F)F | – | – | – | – | 237 mg/kg | 0 mmHg | 0 mmHg | 64 mmHg | 59 mmHg |
| O=C(NNc1nncc(-c2ccccc2)n1)C(Cl)Cl | – | – | – | – | 178 mg/kg | 33 mmHg | 54 mmHg | 106 mmHg | 80 mmHg |
| CNNc1nncc(-c2ccccc2)n1 | – | – | – | – | 178 mg/kg | 0 mmHg | 49 mmHg | 56 mmHg | 92 mmHg |
| NNc1nncc(-c2cccc(Cl)c2)n1 | – | – | – | – | 237 mg/kg | 0 mmHg | 0 mmHg | 55 mmHg | 51 mmHg |
| O=C(CCCl)NNc1nncc(-c2ccc(Cl)cc2)n1 | inactive | inactive | inactive | inactive | 237 mg/kg | – | – | – | – |
| Cc1ccc(-c2cnnc(NN)n2)cc1.O | – | – | – | – | 224 mg/kg | 62 mmHg | 28 mmHg | 75 mmHg | 38 mmHg |
| Cl.O=C(NNc1nncc(-c2ccc(Cl)cc2)n1)C(Cl)(Cl)Cl | inactive | inactive | inactive | inactive | 237 mg/kg | – | – | – | – |
| O=C(NNc1nncc(-c2ccccc2)n1)C(F)(F)F | – | – | – | – | 178 mg/kg | 51 mmHg | 29 mmHg | 70 mmHg | 88 mmHg |
| CNNc1nncc(-c2ccc(Cl)cc2)n1 | – | – | – | – | 316 mg/kg | 0 mmHg | 12 mmHg | 39 mmHg | 53 mmHg |
